Laboratory results taken from ChEMBL document CHEMBL1649071, “4-[18F]fluoroglutamic acid (BAY 85-8050), a new amino acid radiotracer for PET imaging of tumors: synthesis and in vitro characterization” (J Med Chem, 2011).
Values belong to the compound of their own block, whether it stands above or below them.

Assays:
Format in all cases: ADME, cell-based
[1] = tested on: HT-29; assay: Drug uptake in human HT-29 cells at 250 kBq after 20 mins by gamma-counting in presence of L-glutamic acid; conditions: ht-29, 20 min
[2] = tested on: A549; assay: Drug uptake in human A549 cells at 250 kBq after 20 mins by gamma-counting; conditions: a549, 20 min
[3] = tested on: HT-29; assay: Drug uptake in human HT-29 cells at 250 kBq after 20 mins by gamma-counting; conditions: ht-29, 20 min
[4] = tested on: A549; assay: Drug uptake in human A549 cells at 250 kBq after 30 mins by gamma-counting in presence of L-glutamic acid; conditions: a549, 0.5 h
[5] = tested on: A549; assay: Drug uptake in human A549 cells at 250 kBq after 30 mins by gamma-counting; conditions: a549, 0.5 h
[6] = tested on: A549; assay: Drug uptake in human A549 cells at 250 kBq by gamma-counting; conditions: TDE = time-dependent effect
[7] = tested on: A549; assay: Drug uptake in human A549 cells at 250 kBq after 30 mins by gamma-counting in presence of D-glucose; conditions: a549, 0.5 h
[8] = tested on: HT-29; assay: Drug uptake in human HT-29 cells at 250 kBq after 20 mins by gamma-counting in presence of D-glucose; conditions: ht-29, 20 min

Drug uptake [1]: Not Active
Drug uptake [2]: 9.3%
Drug uptake [3]: 4%
Drug uptake [4]: Not Active
Drug uptake [5]: 12%
Drug uptake [6]: tde
Structure (SMILES): N[C@@H](CC([18F])C(=O)O)C(=O)O (stereo not given in full)

Drug uptake [7]: Not Active
Drug uptake [8]: Not Active
Structure (SMILES): OC[C@H]1O[C@@H](O)[C@H]([18F])[C@@H](O)[C@@H]1O [FLUDEOXYGLUCOSE-F18]

Drug uptake [5]: Active
Structure (SMILES): N[C@@H](C[C@@H](F)C(=O)O)C(=O)O

Drug uptake [5]: Active
Structure (SMILES): N[C@@H](C[C@H](F)C(=O)O)C(=O)O
